# Experiments:
# [1] = Metabolic stability in CD-1 mouse liver microsomes assessed as half life at 1 uM preincubated for 5 mins followed by NADPH addition and measured upto 60 mins by HPLC-MS/MS analysis; format: ADME, Microsome; settings: time < 65 min
# [2] = target: T1, Type-2 angiotensin II receptor (Homo sapiens, UniProt P50052); experiment: Displacement of [125-I]-[Sar1Ile8]-angiotensin II from human AT2R expressed in HEK293 cell membrane assessed as inhibition constant by radioligand binding assay; format: cell membranes
# T1 sequence (P50052 whole entry): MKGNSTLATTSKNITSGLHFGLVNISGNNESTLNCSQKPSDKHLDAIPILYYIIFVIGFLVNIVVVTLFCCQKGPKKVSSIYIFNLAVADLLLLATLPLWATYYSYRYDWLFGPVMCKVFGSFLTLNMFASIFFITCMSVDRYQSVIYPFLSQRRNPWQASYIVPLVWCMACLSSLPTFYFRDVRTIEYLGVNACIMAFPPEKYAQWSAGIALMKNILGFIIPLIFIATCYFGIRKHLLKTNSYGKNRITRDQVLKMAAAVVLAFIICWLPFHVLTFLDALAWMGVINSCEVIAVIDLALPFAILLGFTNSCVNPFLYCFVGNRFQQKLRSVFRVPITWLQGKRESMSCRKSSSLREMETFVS
# [3] = Metabolic stability in Sprague-Dawley rat liver microsomes assessed as half life at 1 uM preincubated for 5 mins followed by NADPH addition and measured upto 60 mins by HPLC-MS/MS analysis; format: ADME, Microsome
# [4] = target: T2, Type-1 angiotensin II receptor (Homo sapiens, UniProt P30556); experiment: Displacement of [125-I]-[Sar1Ile8]-angiotensin II from human AT1R expressed in HEK293 cell membrane assessed as inhibition constant by radioligand binding assay; format: cell membranes
# T2 sequence (P30556 whole entry): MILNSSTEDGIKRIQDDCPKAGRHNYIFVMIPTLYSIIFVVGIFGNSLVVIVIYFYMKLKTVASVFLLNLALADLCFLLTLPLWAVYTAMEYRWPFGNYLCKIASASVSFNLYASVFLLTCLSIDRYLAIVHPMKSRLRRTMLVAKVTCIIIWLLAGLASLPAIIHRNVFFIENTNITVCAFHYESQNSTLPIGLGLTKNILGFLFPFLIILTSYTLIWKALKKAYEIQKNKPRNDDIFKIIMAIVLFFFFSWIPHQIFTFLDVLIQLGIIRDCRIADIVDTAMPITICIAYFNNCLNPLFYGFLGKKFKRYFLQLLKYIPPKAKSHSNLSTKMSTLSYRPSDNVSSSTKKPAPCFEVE
# [5] = Metabolic stability in human liver microsomes assessed as half life at 1 uM preincubated for 5 mins followed by NADPH addition and measured upto 60 mins by HPLC-MS/MS analysis; format: ADME, Microsome; settings: time < 65 min
# [6] = species on record: Homo sapiens; experiment: Selectivity index, ratio of Ki for displacement of [125-I]-[Sar1Ile8]-angiotensin II from human AT2R expressed in HEK293 cell membrane to Ki for displacement of [125-I]-[Sar1Ile8]-angiotensin II from human AT1R expressed in HEK293 cell membrane; format: cell membranes
# [7] = Displacement of [125-I]-angiotensin II from AT2R in pig myometrial membrane assessed as inhibition constant incubated for 1.5 hrs by gamma counter analysis; format: cell membranes, Sus scrofa, Myometrium
half-life at 1 µM [1],Ki [2],half-life at 1 µM [3],Ki [4],half-life at 1 µM [5],Ki [7],Structure (SMILES),Ratio Ki [6]
4 min,13 nM,7 min,> 1000 nM,10 min,–,CCCCOC(=O)NS(=O)(=O)c1ccc(CCC)cc1-c1ccc(Cn2c(C(F)(F)F)nc3ccccc32)cc1,–
–,11 nM,–,> 3000 nM,–,–,CCCCOC(=O)NS(=O)(=O)c1ccc(CCC)cc1-c1cc(F)c(Cn2c(C(C)(C)C)nc3ccccc32)c(F)c1,–
–,31 nM,–,710 nM,–,–,CCCCOC(=O)NS(=O)(=O)c1ccc(CCC)cc1-c1ccc(Cn2c(C3CC3)nc3ccccc32)cc1,–
–,4 nM,–,390 nM,–,–,CCCCOC(=O)NS(=O)(=O)c1ccc(CCC)cc1-c1ccc(Cn2c(C(C)C)nc3ccccc32)cc1,100
–,35 nM,–,410 nM,–,–,CCCCOC(=O)NS(=O)(=O)c1ccc(CCC)cc1-c1ccc(Cn2c(C3CCCC3)nc3ccccc32)cc1,10
7 min,5.3 nM,20 min,> 1000 nM,12 min,–,CCCCOC(=O)NS(=O)(=O)c1ccc(CCC)cc1-c1ccc(Cn2c(C(C)(C)C)nc3ccccc32)cc1,–
–,15 nM,–,> 3000 nM,–,–,CCCCOC(=O)NS(=O)(=O)c1ccc(CCC)cc1-c1ccc(Cn2c(Cc3ccccc3)nc3ccccc32)cc1,–
–,6 nM,–,> 3000 nM,–,–,CCCc1ccc(S(=O)(=O)NC(=O)OCCC(F)(F)C(F)(F)F)c(-c2ccc(Cn3c(C(C)(C)C)nc4ccccc43)cc2)c1,–
–,11 nM,–,710 nM,–,–,CCCCOC(=O)NS(=O)(=O)c1ccc(CCC)cc1-c1ccc(Cn2c(CC)nc3ccccc32)cc1,–
–,9.2 nM,–,180 nM,–,–,CCCCOC(=O)NS(=O)(=O)c1ccc(CCC)cc1-c1ccc(Cn2c(CCCC)nc3ccccc32)cc1,–
–,19 nM,–,> 3000 nM,–,–,CCCCOC(=O)NS(=O)(=O)c1ccc(CCC)cc1-c1ccc(Cn2c(CC(C)C)nc3ccccc32)cc1,–
–,130 nM,–,> 3000 nM,–,–,CCCCOC(=O)NS(=O)(=O)c1ccc(CCC)cc1-c1ccc(Cn2c(C3CCCCC3)nc3ccccc32)cc1,–
–,–,–,–,–,0.4 nM,CCCCOC(=O)NS(=O)(=O)c1sc(CC(C)C)cc1-c1ccc(Cn2ccnc2)cc1 [BULOXIBUTID],–
–,460 nM,–,> 3000 nM,–,–,CCCCOC(=O)NS(=O)(=O)c1ccc(CCC)cc1-c1ccc(Cn2c(C34CC5CC(CC(C5)C3)C4)nc3ccccc32)cc1,–
5 min,29 nM,5 min,> 1000 nM,10 min,–,CCCCOC(=O)NS(=O)(=O)c1ccc(CCC)cc1-c1ccc(Cn2cnc3ccccc32)cc1,–
4 min,9.4 nM,6 min,620 nM,10 min,–,CCCCOC(=O)NS(=O)(=O)c1ccc(CCC)cc1-c1ccc(Cn2c(C)nc3ccccc32)cc1,–
6 min,12 nM,16 min,> 3000 nM,15 min,–,CCCc1ccc(S(=O)(=O)NC(=O)OCCCC(F)(F)F)c(-c2cc(F)c(Cn3c(C(C)(C)C)nc4ccccc43)c(F)c2)c1,–
–,590 nM,–,> 1000 nM,–,–,CCCCOC(=O)NS(=O)(=O)c1ccc(CCC)cc1-c1ccc(Cn2c(-c3ccccc3)nc3ccccc32)cc1,–
–,12 nM,–,400 nM,–,–,CCCCOC(=O)NS(=O)(=O)c1ccc(CCC)cc1-c1ccc(Cn2c(C3CCC3)nc3ccccc32)cc1,–
–,14 nM,–,460 nM,–,–,CCCCOC(=O)NS(=O)(=O)c1ccc(CCC)cc1-c1ccc(Cn2c(CCC)nc3ccccc32)cc1,–
6 min,4.5 nM,21 min,> 3000 nM,20 min,–,CCCc1ccc(S(=O)(=O)NC(=O)OCCCC(F)(F)F)c(-c2ccc(Cn3c(C(C)(C)C)nc4ccccc43)cc2)c1,–
5 min,5.1 nM,16 min,> 3000 nM,21 min,–,CCCCOC(=O)NS(=O)(=O)c1ccc(CCC)cc1-c1ccc(Cn2c(-c3nccs3)nc3ccccc32)cc1,–
